From paper PMC2806602 (The Journal of neuroscience : the official journal of the …, 2009)
Positions count from the first letter of the chain named. Read-outs that look alike come from different tables or passages of the source.

Legend:
Type in all cases: cell-based
[1] = target: T1, GluRδ2^Lc (Rattus norvegicus, UniProt Q63226, A654T)
T1 sequence (Q63226 24-1007 A654T): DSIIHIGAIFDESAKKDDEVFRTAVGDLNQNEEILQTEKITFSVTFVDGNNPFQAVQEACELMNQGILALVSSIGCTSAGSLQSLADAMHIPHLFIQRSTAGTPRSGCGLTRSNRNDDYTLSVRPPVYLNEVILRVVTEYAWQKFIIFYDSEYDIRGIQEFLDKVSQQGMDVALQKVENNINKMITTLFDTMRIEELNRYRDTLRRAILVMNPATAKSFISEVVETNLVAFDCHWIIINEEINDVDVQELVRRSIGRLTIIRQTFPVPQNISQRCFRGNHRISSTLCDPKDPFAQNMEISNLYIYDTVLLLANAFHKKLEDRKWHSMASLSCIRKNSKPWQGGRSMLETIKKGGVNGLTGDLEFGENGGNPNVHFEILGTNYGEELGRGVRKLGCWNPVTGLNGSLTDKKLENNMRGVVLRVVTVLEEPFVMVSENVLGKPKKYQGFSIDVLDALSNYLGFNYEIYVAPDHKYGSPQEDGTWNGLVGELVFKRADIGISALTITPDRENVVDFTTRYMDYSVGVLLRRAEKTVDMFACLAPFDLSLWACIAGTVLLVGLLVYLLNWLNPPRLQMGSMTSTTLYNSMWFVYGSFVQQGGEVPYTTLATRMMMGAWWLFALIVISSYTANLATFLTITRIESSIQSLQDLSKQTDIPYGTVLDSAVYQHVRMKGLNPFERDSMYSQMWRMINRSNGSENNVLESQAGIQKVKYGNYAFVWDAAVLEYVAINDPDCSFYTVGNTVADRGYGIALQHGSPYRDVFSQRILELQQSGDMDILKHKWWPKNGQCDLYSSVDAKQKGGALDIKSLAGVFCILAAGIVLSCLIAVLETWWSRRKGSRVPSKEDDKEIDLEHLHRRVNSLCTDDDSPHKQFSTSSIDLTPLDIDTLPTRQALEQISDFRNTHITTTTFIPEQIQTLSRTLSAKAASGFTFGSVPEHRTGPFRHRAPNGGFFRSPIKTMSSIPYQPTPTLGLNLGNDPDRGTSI

[2] = target: T2, GluRδ2^Lc E531A+D782A (Rattus norvegicus, UniProt Q63226, A654T/D782A/E531A); assay: Two-electrode voltage-clamp recordings in Xenopus oocytes, GluRδ2^Lc E531A+D782A
T2 sequence (Q63226 24-1007 E531A/A654T/D782A): T1 sequence (Q63226 24-1007 A654T) with E508A, D759A

[3] = target: T3, GluRδ2^Lc D535A (Rattus norvegicus, UniProt Q63226, A654T/D535A); assay: Two-electrode voltage-clamp recordings in Xenopus oocytes, GluRδ2^Lc D535A
T3 sequence (Q63226 24-1007 D535A/A654T): T1 sequence (Q63226 24-1007 A654T) with D512A

Row | D-serine + 0 mM Ca^2+ nH ([1]; Hill slope, 0 mM Ca^2+) | D-serine + 3 mM Ca^2+ nH ([1]; Hill slope, 3 mM Ca^2+) | D-serine + 0 mM Ca^2+ nH ([2]; Hill slope, 0 mM Ca^2+) | D-serine + 3 mM Ca^2+ nH ([2]; Hill slope, 3 mM Ca^2+) | D-serine + 0 mM Ca^2+ nH ([3]; Hill slope, 0 mM Ca^2+) | D-serine + 3 mM Ca^2+ nH ([3]; Hill slope, 3 mM Ca^2+) | spontaneously active current relative to baseline with Ba^2+ ([1]; 0.5 mM Ba^2+ exchanged with 0.5 mM of the divalent cation) | Ca^2+ potentiation (relative to baseline) ([1]; 3 mM Ca^2+, baseline spontaneously active current, ± SEM) [fold] | maximal fold potentiation relative to baseline spontaneously active currents ([1]; Ca^2+ concentration-response, fitted maximum) [fold] | nH of reduction of D-serine potency by extracellular Ca^2+ ([1]; Hill coefficient) | nH of Ca^2+ potentiation of GluRδ2^Lc currents ([1]; Hill coefficient, in the absence of D-serine) | nH of Ca^2+ potentiation of GluRδ2^Lc currents ([1]; Hill coefficient, in the presence of 1 mM D-serine) | EC50 ([1]; read-out: EC50 of Ca^2+ to potentiate GluRδ2^Lc currents, in the presence of 1 mM D-serine) [µM] | EC50 ([1]; read-out: EC50 of Ca^2+ to potentiate spontaneously active GluRδ2^Lc currents, in the absence of D-serine) [µM] | Ca^2+ potentiation (relative to baseline) ([2]; 3 mM Ca^2+, ± SEM) [fold] | Ca^2+ potentiation (relative to baseline) ([3]; 3 mM Ca^2+, ± SEM) [fold] | SMILES
1 | 1.0 | 2.1 | 2.3 | 2.4 | 2.3 | 2.2 | – | – | – | – | – | – | – | – | – | – | N[C@H](CO)C(=O)O [D-serine]
2 | – | – | – | – | – | – | 3.91 ± 0.22 | 3.8 ± 0.23 | 4.1 ± 0.2 | 1.3 | 1.7 | 2.3 | 676 ± 13 | 205 ± 7 | 0.9 ± 0.04 | 1.0 ± 0.01 | [Ca+2] [Ca^2+, calcium]
